Where “and” joins values, the source holds several entries; their conditions need not be identical. Equal entries are not always repeated. Toxic doses and inconclusive results are not listed.

The values below come from PubChem BioAssay AID328 (DTP/NCI, 2004).

The subject of this experiment is BDF1 mice, P388 leukemia ip, median survival T/C. Description: NCI In Vivo Anticancer Drug Screen. Data for tumor model P388 Leukemia (intraperitoneal) in B6D2F1 (BDF1) mice. Particulars: endpoint: median survival time, higher = longer survival. An outline of the steps: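 Compound-treated tumour-bearing mice were compared with vehicle-treated controls. Survival was recorded, and the value is the treated-group measurement divided by the control-group measurement (T/C).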

Setting [1] is: dose: 100.0 mg/kg/injection, schedule: Q01DX009 (ip), vehicle: water.
[2] abbreviates: dose: 100.0 mg/kg/injection, schedule: Q04DX003 (ip), vehicle: water.
[3] abbreviates: dose: 200.0 mg/kg/injection, schedule: Q01DX009 (ip), vehicle: water.
Setting [4] is: dose: 200.0 mg/kg/injection, schedule: Q04DX003 (ip), vehicle: water.
Where [5] appears, read: dose: 50.0 mg/kg/injection, schedule: Q01DX009 (ip), vehicle: saline with Tween-80.
The mark [6] stands for this setting: dose: 100.0 mg/kg/injection, schedule: Q01DX009 (ip), vehicle: saline with Tween-80.
Setting [7] is: dose: 200.0 mg/kg/injection, schedule: Q01DX009 (ip), vehicle: saline with Tween-80.
Where [8] appears, read: dose: 100.0 mg/kg/injection, schedule: Q04DX003 (ip), vehicle: saline with Tween-80.
Where [9] appears, read: dose: 200.0 mg/kg/injection, schedule: Q04DX003 (ip), vehicle: saline with Tween-80.
[10] abbreviates: dose: 400.0 mg/kg/injection, schedule: Q04DX003 (ip), vehicle: saline with Tween-80.
Where [11] appears, read: dose: 25.0 mg/kg/injection, schedule: Q04DX003 (ip), vehicle: saline with Tween-80.
The mark [12] stands for this setting: dose: 50.0 mg/kg/injection, schedule: Q01DX009 (ip), vehicle: Klucel (hydroxypropylcellulose) (HPC).
Where [13] appears, read: dose: 100.0 mg/kg/injection, schedule: Q01DX009 (ip), vehicle: Klucel (hydroxypropylcellulose) (HPC).
[14] abbreviates: dose: 25.0 mg/kg/injection, schedule: Q01DX009 (ip), vehicle: Klucel (hydroxypropylcellulose) (HPC).

For the compound `C/C(=C\C(=O)O)CC(=O)O`, the T/C (dose: 25.0 mg/kg/injection, schedule: Q01DX009 (ip), vehicle: water) is 109 % of control; the T/C (dose: 50.0 mg/kg/injection, schedule: Q01DX009 (ip), vehicle: water) is 95 % of control; the T/C (dose: 50.0 mg/kg/injection, schedule: Q04DX003 (ip), vehicle: water) is 92 % of control; the T/C under setting [1] is 99 % of control; the T/C under setting [2] is 99 % of control and 108 % of control; the T/C under setting [3] was 101 % of control. Under setting [4], the T/C is 104 % of control and 110 % of control.
With `COc1cccc(/C=N/NC(=O)c2cc(C)nc3ccc(Br)cc23)c1O`, the T/C runs as follows: under setting [5], 103 % of control; under setting [6], 103 % of control; under setting [7], 100 % of control.
Consider `O=C1c2ccccc2C(=O)N1c1c2ccccc2cc2ccccc12`, for which the T/C is 100 % of control under setting [8], 104 % of control under setting [9] and 100 % of control under setting [10].
On to `CC(C)n1cnc2c(=S)nc[nH]c21`, for which the T/C is 91 % of control under setting [6], 100 % of control under setting [8], 104 % of control under setting [9] and 113 % of control under setting [10].
Consider `CCN=C(N)Nc1ccc(NC(=O)c2ccc(C(=O)Nc3ccc(NC(N)=NCC)cc3)cc2)cc1`, for which the T/C is, setting by setting: (dose: 16.5 mg/kg/injection, schedule: Q04DX003 (ip), vehicle: saline with Tween-80) 213 % of control; under setting [11], 218 % of control; (dose: 37.5 mg/kg/injection, schedule: Q04DX003 (ip), vehicle: saline with Tween-80) 109 % of control; under setting [8], 168 % of control; under setting [9], 86 % of control.
Regarding `COC(OC)c1[nH]c(=S)[nH]c(=O)c1Cc1ccccc1`, the T/C reads like this: under setting [8], 104 % of control; under setting [9], 112 % of control; under setting [10], 112 % of control.
As to `CCCCCCCSCCSCCSCCCCCCC`, the T/C is 100 % of control (dose: 100.0 mg/kg/injection, schedule: Q01DX001 (ip), vehicle: Klucel (hydroxypropylcellulose) (HPC)); 100 % of control (dose: 200.0 mg/kg/injection, schedule: Q01DX001 (ip), vehicle: Klucel (hydroxypropylcellulose) (HPC)); 100 % of control (dose: 400.0 mg/kg/injection, schedule: Q01DX001 (ip), vehicle: Klucel (hydroxypropylcellulose) (HPC)).
For `NCCSC(c1ccccc1)c1ccccc1`, the T/C under setting [12] was 100 % of control and the T/C under setting [13] was 105 % of control.
Turning to `O=C(N/N=C/C=C/c1ccccc1)[C@H](O)[C@@H](O)C(=O)N/N=C/C=C/c1ccccc1`, the T/C reads like this: under setting [13], 88 % of control; (dose: 200.0 mg/kg/injection, schedule: Q01DX009 (ip), vehicle: Klucel (hydroxypropylcellulose) (HPC)) 96 % of control; (dose: 400.0 mg/kg/injection, schedule: Q01DX009 (ip), vehicle: Klucel (hydroxypropylcellulose) (HPC)) 92 % of control.
Take `CC1C=CCC2C(=O)OC(=O)C12` (configuration not stated): the T/C under setting [11] is 100 % of control; the T/C (dose: 50.0 mg/kg/injection, schedule: Q04DX003 (ip), vehicle: saline with Tween-80) is 100 % of control; the T/C under setting [8] is 100 % of control.
Regarding `CSC(=S)NN=C(C)C`, under “dose: 3.13 mg/kg/injection, schedule: Q01DX009 (ip), vehicle: saline with Tween-80”, the T/C is 96 % of control.
`[CH3][Ga][CH3].[CH3][Ga][CH3].[CH3][Ga][CH3].[CH3][Ga][CH3].[OH3+].[OH3+].[OH3+].[OH3+]`: the T/C (dose: 2.5 mg/kg/injection, schedule: Q01DX009 (ip), vehicle: saline with Tween-80) was 90 % of control.
With `CC(C)CCS(=O)(=O)OCCCCOS(=O)(=O)CCC(C)C`, the T/C runs as follows: under setting [6], 114 % of control; under setting [8], 100 % of control; under setting [7], 109 % of control; under setting [9], 100 % of control; (dose: 400.0 mg/kg/injection, schedule: Q01DX009 (ip), vehicle: saline with Tween-80) 114 % of control; under setting [10], 104 % of control.
As for `COC(=O)C1C(O)C(C)C(O)C(C)C=C(C)C2=C3C(=C(C)C(=O)c4c(O)c(c(C)c(OC(C)=O)c43)NC(=O)C(C)=C/C=C\C(C)C(O)C(C)C1O)OCO2` (configuration not stated), the T/C is 101 % of control under setting [14]; 90 % of control (dose: 25.0 mg/kg/injection, schedule: Q01DX009 (ip), vehicle: saline with Tween-80); 110 % of control and 97 % of control under setting [12]; 109 % of control under setting [5]; 101 % of control and 113 % of control under setting [13]; 90 % of control under setting [6].
For `ClCc1ccncc1`, the T/C reads like this: (dose: 100.0 mg/kg/injection, schedule: Q04DX003 (ip), vehicle: saline) 100 % of control; (dose: 200.0 mg/kg/injection, schedule: Q04DX003 (ip), vehicle: saline) 100 % of control.
In the case of `CC(O)Cc1c[nH]c(=O)[nH]c1=O` (configuration not stated), the T/C under setting [1] was 92 % of control; the T/C under setting [2] was 90 % of control; the T/C under setting [3] was 96 % of control; the T/C under setting [4] was 105 % of control; the T/C (dose: 400.0 mg/kg/injection, schedule: Q04DX003 (ip), vehicle: water) was 96 % of control.
For `CC(=O)N(/N=C/c1cc(C=O)n(-c2ccccc2)n1)c1ccccc1`, the T/C by setting is: under setting [5], 86 % of control; under setting [6], 90 % of control; under setting [7], 105 % of control.
Take `CCCCCCCCOC(=O)c1[nH]cnc1/N=N\N(C)C`: the T/C (dose: 12.5 mg/kg/injection, schedule: Q01DX009 (ip), vehicle: Klucel (hydroxypropylcellulose) (HPC)) was 95 % of control; the T/C under setting [14] was 95 % of control; the T/C under setting [12] was 90 % of control.
As to `C=C1C(=O)OC2/C=C(\C)CC(O)/C=C(/C)CC(OC(=O)C3(C)OC3C)C12` (configuration not stated), the T/C by setting is: (dose: 100.0 mg/kg/injection, schedule: Q04DX002 (ip), vehicle: Klucel (hydroxypropylcellulose) (HPC)) 111 % of control; (dose: 200.0 mg/kg/injection, schedule: Q04DX002 (ip), vehicle: Klucel (hydroxypropylcellulose) (HPC)) 113 % of control.
On to `OC1(C2(O)c3ccccc3Oc3ccccc32)c2ccccc2Oc2ccccc21`, for which the T/C (dose: 50.0 mg/kg/injection, schedule: Q01DX001 (ip), vehicle: saline) is 95 % of control; the T/C (dose: 100.0 mg/kg/injection, schedule: Q01DX001 (ip), vehicle: saline) was 90 % of control; the T/C (dose: 200.0 mg/kg/injection, schedule: Q01DX001 (ip), vehicle: saline) is 90 % of control.
In the case of `Cc1cc(N2CCOCC2)nc(N2CCOCC2)c1C#N`, the T/C is 91 % of control (dose: 100.0 mg/kg/injection, schedule: Q01DX005 (ip), vehicle: saline with Tween-80) and 99 % of control (dose: 200.0 mg/kg/injection, schedule: Q01DX005 (ip), vehicle: saline with Tween-80).
Take `CCC1(O)C2CCCC1CCC2` (configuration not stated): the T/C is, setting by setting: (dose: 100.0 mg/kg/injection, schedule: Q01DX009 (ip), vehicle: other) 100 % of control; (dose: 100.0 mg/kg/injection, schedule: Q04DX003 (ip), vehicle: Klucel (hydroxypropylcellulose) (HPC)) 100 % of control; (dose: 200.0 mg/kg/injection, schedule: Q01DX009 (ip), vehicle: other) 109 % of control; (dose: 200.0 mg/kg/injection, schedule: Q04DX003 (ip), vehicle: Klucel (hydroxypropylcellulose) (HPC)) 108 % of control; (dose: 400.0 mg/kg/injection, schedule: Q01DX009 (ip), vehicle: other) 113 % of control; (dose: 400.0 mg/kg/injection, schedule: Q04DX003 (ip), vehicle: Klucel (hydroxypropylcellulose) (HPC)) 100 % of control.
In the case of `CCc1c(Cl)c(C)cc(O)c1Cl`, the T/C was 112 % of control (dose: 18.0 mg/kg/injection, schedule: Q01DX009 (ip), vehicle: gum acacia); 112 % of control (dose: 25.0 mg/kg/injection, schedule: Q01DX009 (ip), vehicle: gum acacia); 88 % of control (dose: 25.0 mg/kg/injection, schedule: Q04DX003 (ip), vehicle: gum acacia); 100 % of control (dose: 50.0 mg/kg/injection, schedule: Q01DX009 (ip), vehicle: gum acacia); 92 % of control (dose: 50.0 mg/kg/injection, schedule: Q04DX003 (ip), vehicle: gum acacia); 96 % of control (dose: 100.0 mg/kg/injection, schedule: Q04DX003 (ip), vehicle: gum acacia).
